Data taken from patent publication US20050202010A1, “Method of treatment and bioassay involving macrophage migration inhibitory factor (MIF) as cardiac-derived myocardial depressant factor” (priority 2003, published 2005).

Legend:
LPS stimulated monocytes = details: cited from earlier work
[1] = system: wild type mice challenged with LPS; experiment: Serum MIF levels (ELISA) after LPS challenge, Enbrel pre-treatment; type: in vivo, mouse; details: wild type mice pre-treated (60 minutes) with Enbrel, LPS 4 mg/kg
Description: (§1) Mice were injected intraperitoneally with 4 mg/kg E. coli 0111:B4 LPS (Sigma-Aldrich Corp., St. Louis, Mo.) and sacrificed by CO2 asphyxiation and subsequent cervical dislocation. Uninjected mice were used as controls. The two anti-MIF antibodies (III.D.9 and XIV.15.5, gift of Cytokine PharmaSciences, Inc., King of Prussia, Pa.) and their isotype control (HB-49, gift from Cytokine PharmaSciences, Inc.) were injected (100 μg in […]) intraperitoneally 90 minutes before the LPS challenge in the echocardiogram studies. […]
Determination of serum MIF levels. Sera from six mice were assayed for mouse MIF using the Chemikine™ Rat/Mouse macrophage inhibitory factor (MIF) EIA kit (Chemicon International, Inc., Temecula, Calif.) according to the manufacturer's instructions. Briefly, 5 μl of standards, samples, or reaction buffer (blank) were added to each well in duplicate. Diluted MIF-HRP antibody conjugate was added to each well (100 μl) and allowed to incubate for 2 hours at room temperature. Wells were then washed five times, and TMB substrate (100 μl) was allowed to incubate in the dark for 30 minutes at room temperature. The stop reagent was added to each well, gently mixed, and the ELISA was read on an ELISA plate reader (EL 312e Microplate Reader, Bio-Tek Instruments, Winooski, Vt.) at 450 nm (630 nm background) within 30 minutes of completion of the assay. […]

[2] = system: wild type mice challenged with LPS; experiment: Tissue MIF release (western, immunohistochemistry) after LPS challenge, Enbrel pre-treatment; type: in vivo, mouse
Description: as §1, with “Louis,” for “Mice were injected intraperitoneally with 4 mg/kg E. coli 0111:B4 LPS (Sigma-Aldrich Corp., St. Louis,”
Protein Extraction and Western Blotting. […] Protein concentration was quantified using the Bio-Rad Protein Assay (Hercules, Calif.) and 50 μg of protein diluted in Laemmeli sample buffer (Bio-Rad) was added in a 1:1 ratio to a final volume of 10 μl and resolved on a 12% SDS polyacrylamide gel under reducing conditions. Prestained SDS-PAGE standards (Kaleidoscope Broad range, Bio-Rad Laboratories, Inc., Hercules, Calif.) were run (10 μl/lane) with each gel in order to determine the approximate M.W. of detected bands. […] The membrane was then developed for 5 minutes with 5 ml of ECL reagents (SuperSignal West Pico, Pierce, Rockford, Ill.), and the resulting chemiluminescent reaction was detected by Kodak X-OMAT AR Film (Eastman Kodak Co., Rochester, N.Y.). […]

Row | Compound | effect on MIF secretion (LPS stimulated monocytes) | other results
1 | C[C@H]1CCC/C=C/[C@@H]2C[C@H](O)C[C@H]2[C@H](O)/C=C/C(=O)O1 [brefelding A] | do not inhibit the secretion of MIF | 
2 | COc1ccc(Cl)cc1C(=O)NCCc1ccc(S(=O)(=O)NC(=O)NC2CCCCC2)cc1 [glyburide] | MIF secretion did not occur | 
3 | CCCN(CCC)S(=O)(=O)c1ccc(C(=O)O)cc1 [probenicide] | MIF secretion did not occur | 
4 | CC[C@@]1([C@@H]2O[C@@H]([C@H]3O[C@@](O)(CO)[C@H](C)C[C@@H]3C)C[C@@H]2C)CC[C@H]([C@]2(C)CC[C@]3(C[C@H](O)[C@@H](C)[C@@H]([C@@H](C)[C@@H](OC)[C@H](C)C(=O)O)O3)O2)O1 [monensin] | do not inhibit the secretion of MIF | 
5 | Enbrel® |  | Maximum serum MIF levels [1]: ~2.3 fold baseline; time of maximum serum MIF levels [1]: 24 h; tissue release of MIF after LPS challenge ([2]; Enbrel given just immediately prior to or after LPS instead of 90 minutes prior (data not shown)): occurred sporatically; release of MIF from cardiac, liver and spleen tissue after LPS challenge ([2]; wild type mice pre-treated with Enbrel, western and immunohistochemistry): did not occur at any time
